# Measurements: US20190233825A1, “METHODS OF MODULATING CYTOSOLIC DNA SURVEILLANCE MOLECULES” (BAYER ANIMAL HEALTH GMBH, priority 2015, published 2019)
# B1: IFN-α1: human interferon α1, positive control, global activator of different IRF pathways (protein, UniProt P01562 24-189, looked up)
# Interferon alpha-1/13: CDLPETHSLDNRRTLMLLAQMSRISPSSCLMDRHDFGFPQEEFDGNQFQKAPAISVLHELIQQIFNLFTTKDSSAAWDEDLLDKFCTELYQQLNDLEACVMQEERVGETPLMNADSILAVKKYFRRITLYLTEKKYSPCAWEVVRAEIMRSLSLSTNLQERLRRKE
# Assays:
# I-ISG54 promoter = assay: SEAP reporter assay in B16-Blue ISG cells; type: cell-based, murine
# Source text: B16-Blue™ ISG cells were derived from the murine B16 F1 melanoma cell line. They express the secreted embryonic alkaline phosphatase (SEAP) reporter gene under the control of the I-ISG54 promoter which is comprised of the IFN-inducible ISG54 promoter enhanced by a multimeric ISRE. Stimulation of B16-Blue™ ISG cells with IFNs, cyclic dinucleotides, such as cGAMP, or type I IFN inducers, such as transfected poly(dA:dT), triggers the activation of the I-ISG54 promoter and the production of SEAP.
# STING = assay: SEAP reporter assay in B16-Blue ISG-KO-STING cells; type: cell-based, murine
# Source text: B16-Blue™ ISG-KO-STING cells were generated from the B16-Blue™ ISG cell line, a murine B16-F1 melanoma-derived cell line, through stable knockout of the STING gene. They express the secreted embryonic alkaline phosphatase (SEAP) reporter gene under the control of the I-ISG54 promoter which is comprised of the IFN-inducible ISG54 promoter enhanced by a multimeric ISRE. […] Stimulation of these cells with IFN triggers the activation of the I-ISG54 promoter and the production of SEAP.
# Referring to FIG. 26, known STING pathways activators, Herpes simplex virus DNA complexed with LyoVec (HSV-LyoVec) and the cyclic dinucleotide 2′,3′-cGAMP were used to validate cell line properties.
# BRD [1] = assay: BRD treatment study in heifers: Baytril 100, Seq No 2-F, combination; type: in vivo, cattle; settings: observed until day 60 post-diagnosis
# BRD [2] = assay: BRD treatment study in beef calves: Draxxin, Seq No 2-F, combination; type: in vivo, cattle; settings: 56 days after diagnosis
# Method: The purpose of this study was to compare the effectiveness of Draxxin®, Draxxin® and Seq No 2-F, or Seq No 2-F alone in cattle diagnosed with BRD.
# The first group was administered 1.1 ml/cwt of Draxxin® subcutaneously at the time of diagnosis. […] A 3 day moratorium followed treatment, and the study concluded 56 days after the diagnosis.
# BRD [3] = assay: Metaphylaxis study in feedlot calves at medium risk of BRD versus Micotil; settings: calves observed for 56 days
# Method: Weaned beef calves with an average weight of 590 lbs and determined to be at medium risk for BRD were selected for this study.
# Morbidity, mortality, average daily gain (ADG), dry matter intake (DMI), and feed to weight gain ratio were measured and compared between the study groups.
# [4] = test system: interferon regulatory factor 3 (IRF-3); assay: IRF-inducible SEAP reporter assay in THP1-Blue ISG (IRF-THP-1) cells
# Source text: A human macrophage-like (monocyte) cell line (THP-1), derived from an acute monocytic leukemia patient, is used as a model system for monocyte function. THP1-Blue ISG cells (Invitrogen) were generated by stable integration of an interferon regulatory factor (IRF)-inducible secretory alkaline phosphatase (SEAP) reporter construct (IRF-THP1 cells). The THP-1 cells endogenously contain functional STING (Simulator of interferon genes) pathway molecules, as well as cytosolic DNA recognition receptors. STING receives signals from and is itself a cytosolic DNA surveillance molecule that acts through IRF-3. Activation of STING leads to SEAP production, which is then detectable in the culture supernatant. Thus, activation of the IRF-3 reporter SEAP construct correlates to activation of the STING pathway.
# The stably transfected IRF-THP-1 cell line was tested for its functionality by IFN-α1, which is a global activator of different IRF pathways. IRF-THP-1 cells were contacted with human interferon α1 (IFN α1) as a positive control for IRF-3 activation. […] FIG. 4 graphically illustrates IFN α1 activation of IRF-3.
molecule,measurement,setting,value
"Nc1nc2c(ncn2[C@@H]2O[C@@H]3COP(=O)(O)O[C@H]4[C@@H](O)[C@H](n5cnc6c(N)ncnc65)O[C@@H]4COP(=O)(O)O[C@@H]2[C@@H]3O)c(=O)[nH]1 [2′,3′-cGAMP]",signal (interferon-response element readout),"I-ISG54 promoter; parental B16-Blue ISG cell line, FIG. 26",significant signals
same,signal (interferon-response element readout),STING,completely abrogated
"Nc1nc2c(ncn2[C@@H]2O[C@@H]3COP(=O)(O)O[C@H]4[C@@H](O)[C@H](n5cnc6c(N)ncnc65)O[C@@H]4COP(=O)(O)O[C@H]3[C@H]2O)c(=O)[nH]1 [3′,3′-cGAMP]",SEAP signal,"I-ISG54 promoter; controls, FIG. 21",expected specific signals
"CCN1CCN(c2cc3c(cc2F)c(=O)c(C(=O)O)cn3C2CC2)CC1 [Baytril 100, enrofloxacin]",ADG (deads out),BRD [1],1.8 lbs/day
same,Avg wt gain (deads in),BRD [1],24.3 lbs
same,Avg wt gain (deads out),BRD [1],87.00 lbs
same,BRD Chronicity,BRD [1],22.10%
same,BRD case-fatality,BRD [1],10.0%
same,BRD repulls,BRD [1],44.8%
"CCCNC[C@]1(O)[C@H](C)O[C@@H](O[C@H]2[C@H](C)[C@@H](O[C@@H]3O[C@H](C)C[C@H](N(C)C)[C@H]3O)[C@](C)(O)C[C@@H](C)CN[C@H](C)[C@@H](O)[C@](C)(O)[C@@H](CC)OC(=O)[C@@H]2C)C[C@@]1(C)OC [Draxxin, tulathromycin]",ADG (deads in),BRD [2],3.2 lbs/day
same,ADG (deads out),BRD [2],3.3 lbs/day
same,Avg wt gain (deads in),BRD [2],181.1 lbs
same,Avg wt gain (deads out),BRD [2],187.0 lbs
same,BRD Chronicity,BRD [2],4.0%
same,BRD case-fatality,BRD [2],1.3%
same,BRD morbidity,BRD [2],29.2%
same,BRD repulls,BRD [2],37.2%
same,Time to BRD Dx,BRD [2],18.8 days
CC[C@H]1OC(=O)C[C@@H](O)[C@H](C)[C@@H](O[C@@H]2O[C@H](C)[C@@H](O)[C@H](N(C)C)[C@H]2O)[C@@H](CCN2C[C@H](C)C[C@H](C)C2)C[C@@H](C)C(=O)/C=C/C(C)=C/[C@@H]1CO[C@@H]1O[C@H](C)[C@@H](O)[C@@H](OC)[C@H]1OC [Micotil],ADG,BRD [3],2.96
same,BRD Chronicity,BRD [3],27.90%
same,BRD case-fatality,BRD [3],3.95%
same,BRD repulls,BRD [3],17.9%
same,DMI,BRD [3],12.96
same,Feed: Gain,BRD [3],4.50
same,Overall BRD Mortality,BRD [3],0.44%
same,Time to BRD Dx,BRD [3],28.1
B1,SEAP signal,"I-ISG54 promoter; IFN-α1 dosing, FIG. 20",clear dose-response relationship
same,"SEAP signal, dose-response curve","[4]; 1.5625-50 μg/ml, FIG. 11",dose-dependent response
same,SEAP signal,"[4]; IFN-α1 dosing, FIG. 4",clear dose-response relationship
